Literature values, collected in patent US5888537A, “Vinca alkaloid vesicles with enhanced efficacy and tumor targeting properties” (priority 1997, dated 1999).
Read-outs that look alike come from different tables or passages of the source.

Details: clinical use, background

CC[C@]1(O)C[C@H]2CN(CCc3c([nH]c4ccccc34)[C@@](C(=O)OC)(c3cc4c(cc3OC)N(C=O)[C@H]3[C@@](O)(C(=O)OC)[C@H](OC(C)=O)[C@]5(CC)C=CCN6CC[C@]43[C@@H]65)C2)C1 [Free Vcr, vincristine]
side effect (listed as Vincristine): Neurotoxicity
side effect (listed as vincristine): Alopecia and hair loss

CC[C@]1(O)C[C@@H]2CN(CCc3c([nH]c4ccccc34)[C@@](C(=O)OC)(c3cc4c(cc3OC)N(C)[C@H]3[C@@](O)(C(=O)OC)[C@H](OC(C)=O)[C@]5(CC)C=CCN6CC[C@]43[C@@H]65)C2)C1 [vinblastine]
side effect: Alopecia and hair loss
